# Data as given in patent US8436012B2, “Imidazopyridin-2-one derivatives” (Daiichi Sankyo Company, Limited, priority 2008, dated 2013).
# How the values were obtained:
# human mTOR = target: T1, human mTOR (Homo sapiens, UniProt P42345); assay: mTOR Kinase Activity Inhibition Test; assay type: biochemical; conditions: His-tagged mTOR (1362C), biotinylated peptide substrate, ATP, 3 hours at room temperature, fluorescence resonance energy transfer 665 nm/620 nm; read-out: IC50 value of mTOR enzyme inhibitory activity
# T1 construct: the portion corresponding to 1362-2549aa at the C terminus of human mTOR; made in house
# Summary of the method: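 Purified His-tagged human mTOR (1362–2549aa, from HEK293) was used with biotinylated peptide (8 μg/mL in enzyme solution) in HEPES pH 7.5 with 20 mM MnCl2. Compounds were diluted in 20 μM ATP solution, and the reaction ran 3 h at RT. Phospho-S6K(Thr389) HTRF was read as the 665/620 nm ratio, and IC50 came from % inhibition versus controls.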
# WM-266-4 cells = assay: Cell Proliferation Inhibitory Test; assay type: cell-based; conditions: Homo sapiens, 72 h, cultured three days with test compound, MTT, read-out: 50% cell proliferation inhibitory activity (GI50 value)
# Summary of the method: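 Cells cultured overnight, then exposed to serially diluted compound for three days; cell amount read by MTT. GI50 solved from 100×[(T−T0)/(C−T0)]=50, with T0 the value at time of compound addition and C the untreated three-day control.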
# T1 sequence (P42345 1362-2549): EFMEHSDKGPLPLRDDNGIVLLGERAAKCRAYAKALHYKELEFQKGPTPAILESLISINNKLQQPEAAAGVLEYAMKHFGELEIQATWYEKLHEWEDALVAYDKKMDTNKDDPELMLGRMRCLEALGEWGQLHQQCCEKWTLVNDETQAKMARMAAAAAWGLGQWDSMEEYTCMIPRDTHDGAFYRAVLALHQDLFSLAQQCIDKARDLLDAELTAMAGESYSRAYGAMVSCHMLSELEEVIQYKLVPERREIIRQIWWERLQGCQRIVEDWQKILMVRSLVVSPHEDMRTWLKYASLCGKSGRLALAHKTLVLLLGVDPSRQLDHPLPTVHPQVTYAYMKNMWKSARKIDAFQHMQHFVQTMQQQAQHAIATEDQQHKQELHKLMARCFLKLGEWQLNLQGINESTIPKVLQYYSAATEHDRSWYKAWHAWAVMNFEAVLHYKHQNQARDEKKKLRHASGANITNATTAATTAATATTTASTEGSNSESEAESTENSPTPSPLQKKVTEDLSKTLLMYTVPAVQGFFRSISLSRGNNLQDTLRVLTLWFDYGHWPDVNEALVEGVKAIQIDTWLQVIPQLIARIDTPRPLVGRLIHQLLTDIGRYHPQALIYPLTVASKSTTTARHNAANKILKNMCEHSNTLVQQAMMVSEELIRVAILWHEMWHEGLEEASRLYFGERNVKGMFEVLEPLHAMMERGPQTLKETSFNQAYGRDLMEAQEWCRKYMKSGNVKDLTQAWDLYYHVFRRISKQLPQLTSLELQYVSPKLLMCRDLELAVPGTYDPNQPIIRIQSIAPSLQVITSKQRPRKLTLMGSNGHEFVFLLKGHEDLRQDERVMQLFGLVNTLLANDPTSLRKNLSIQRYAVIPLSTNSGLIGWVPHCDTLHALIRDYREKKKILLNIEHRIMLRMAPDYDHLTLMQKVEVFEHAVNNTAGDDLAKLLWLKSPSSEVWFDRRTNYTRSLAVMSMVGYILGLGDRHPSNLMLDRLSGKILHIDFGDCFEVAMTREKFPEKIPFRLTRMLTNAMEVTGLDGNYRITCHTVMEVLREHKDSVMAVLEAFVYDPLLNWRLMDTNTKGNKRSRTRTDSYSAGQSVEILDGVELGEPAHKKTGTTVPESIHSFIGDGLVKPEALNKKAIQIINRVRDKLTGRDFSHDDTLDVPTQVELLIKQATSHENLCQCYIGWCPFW
IC50 (human mTOR),Structure (SMILES),GI50 (WM-266-4 cells)
< 50 nM,O=c1[nH]c2ncc(-c3cnc4[nH]ccc4c3)cc2n1C[C@@H]1COC[C@@H]1O (racemic) [Example 62],< 3000 nM
< 50 nM,"C[C@H]1COCCN1CCn1c(=O)[nH]c2ncc(-c3cnc4[nH]ccc4c3)cc21 [Example 54, 1-{2-[(35)-3-Methylmorpholin-4-yl]ethyl}-6-(1H-pyrrolo[2,3-b]pyridin-5-yl)-1,3-dihydro-2H-imidazo[4,5-b]pyridin-2-one]",< 3000 nM
< 50 nM,"O=c1[nH]c2ncc(-c3ccc4[nH]ccc4c3F)cc2n1CC1CCOCC1 [Example 27, 6-(4-Fluoro-1H-indol-5-yl)-1-(tetrahydro-2H-pyran-4-ylmethyl)-1,3-dihydro-2H-imidazo[4,5-b]pyridin-2-one]",< 3000 nM
< 50 nM,"CO[C@@H]1CC[C@H](Cn2c(=O)[nH]c3ncc(-c4cnc5[nH]ccc5c4)cc32)OC1 (racemic) [Example 113, 2,6-Anhydro-1,3,4-trideoxy-5-O-methyl-1-[2-oxo-6-(1H-pyrrolo[2,3-b]pyridin-5-yl)-2,3-dihydro-1H-imidazo[4,5-b]pyridin-1-yl]-DL-threo-hexitol]",< 3000 nM
< 50 nM,"O=c1[nH]c2ncc(-c3ccc4[nH]ccc4n3)cc2n1CC1CCOCC1 [Example 82, 6-(1H-Pyrrolo[3,2-b]pyridin-5-yl)-1-(tetrahydro-2H-pyran-4-ylmethyl)-1,3-dihydro-2H-imidazo[4,5-b]pyridin-2-one]",< 3000 nM
50 to 100 nM,"Nc1c[nH]c2ncc(-c3cnc4[nH]c(=O)n(CC5CCOCC5)c4c3)cc12 [Example 77, 6-(3-Amino-1H-pyrrolo[2,3-b]pyridin-5-yl)-1-(tetrahydro-2H-pyran-4-ylmethyl)-1,3-dihydro-2H-imidazo[4,5-b]pyridin-2-one]",3000 to 25000 nM
< 50 nM,"O=c1[nH]c2ncc(-c3cnc4[nH]ccc4c3F)cc2n1C[C@H]1COCCO1 [Example 120, 1-[(2S)-1,4-Dioxan-2-ylmethyl]-6-(4-fluoro-1H-pyrrolo[2,3-b]pyridin-5-yl)-1,3-dihydro-2H-imidazo[4,5-b]pyridin-2-one]",< 3000 nM
< 50 nM,"CO[C@@H]1CCO[C@H](Cn2c(=O)[nH]c3ncc(-c4cnc5[nH]ccc5c4C)cc32)C1 [Example 140, 2,6-Anhydro-1,3,5-trideoxy-4-O-methyl-1-[6-(4-methyl-1H-pyrrolo[2,3-b]pyridin-5-yl)-2-oxo-2,3-dihydro-1H-imidazo[4,5-b]pyridin-1-yl]-D-threo-hexitol]",< 3000 nM
< 50 nM,"O=c1[nH]c2ncc(-c3cnc4[nH]ccc4c3)cc2n1CC1(F)CCOCC1 [Example 69, 1-[(4-Fluorotetrahydro-2H-pyran-4-yl)methyl]-6-(1H-pyrrolo[2,3-b]pyridin-5-yl)-1,3-dihydro-2H-imidazo[4,5-b]pyridin-2-one]",< 3000 nM
< 50 nM,"CO[C@@H]1COC[C@H]1Cn1c(=O)[nH]c2ncc(-c3cnc4[nH]ccc4c3)cc21 (racemic) [Example 64, 1-{[trans-4-Methoxytetrahydrofuran-3-yl]methyl}-6-(1H-pyrrolo[2,3-b]pyridin-5-yl)-1,3-dihydro-2H-imidazo[4,5-b]pyridin-2-one]",< 3000 nM
< 50 nM,"CN1C(=O)COC[C@@H]1Cn1c(=O)[nH]c2ncc(-c3cnc4[nH]ccc4c3)cc21 [Example 109, 1-{[(3S)-4-Methyl-5-oxomorpholin-3-yl]methyl}-6-(1H-pyrrolo[2,3-b]pyridin-5-yl)-1,3-dihydro-2H-imidazo[4,5-b]pyridin-2-one]",3000 to 25000 nM
100 to 5000 nM,"O=c1[nH]c2ncc(-c3ccc4[nH]ccc4c3)cc2n1C1CCOCC1 [Example 2, 6-(1H-Indol-5-yl)-1-(tetrahydro-2H-pyran-4-yl)-1,3-dihydro-2H-imidazo[4,5-b]pyridin-2-one]",< 3000 nM
< 50 nM,"CS(=O)(=O)N1CCC(Cn2c(=O)[nH]c3ncc(-c4cnc5[nH]ccc5c4)cc32)CC1 [Example 26, 1-{[1-(Methanesulfonyl)piperidin-4-yl]methyl}-6-(1H-pyrrolo[2,3-b]pyridin-5-yl)-1,3-dihydro-2H-imidazo[4,5-b]pyridin-2-one]",< 3000 nM
< 50 nM,"Cc1nc2[nH]c(=O)n(C[C@H]3CC[C@@H](O)CO3)c2cc1-c1cnc2[nH]ccc2c1 [Example 149, 2,6-Anhydro-1,3,4-trideoxy-1-[5-methyl-2-oxo-6-(1H-pyrrolo[2,3-b]pyridin-5-yl)-2,3-dihydro-1H-imidazo[4,5-b]pyridin-1-yl]-L-threo-hexitol]",< 3000 nM
50 to 100 nM,"O=c1[nH]c2ncc(-c3cnc4[nH]ccc4c3)cc2n1CCN1CCNCC1 [Example 57, 1-[2-piperazin-1-ylethyl]-6-(1H-pyrrolo[2,3-b]pyridin-5-yl)-1,3-dihydro-2H-imidazo[4,5-b]pyridin-2-one]",3000 to 25000 nM
< 50 nM,"CC1(Cn2c(=O)[nH]c3ncc(-c4cnc5[nH]ccc5c4)cc32)CCOCC1 [Example 25, 1-[(4-Methyltetrahydro-2H-pyran-4-yl)methyl]-6-(1H-pyrrolo[2,3-b]pyridin-5-yl)-1,3-dihydro-2H-imidazo[4,5-b]pyridin-2-one]",< 3000 nM
< 50 nM,"Cc1c[nH]c2ncc(-c3cnc4[nH]c(=O)n(C[C@H]5CC[C@@H](O)CO5)c4c3)c(C)c12 [Example 144, 2,6-Anhydro-1,3,4-trideoxy-1-[6-(3,4-dimethyl-1H-pyrrolo[2,3-b]pyridin-5-yl)-2-oxo-2,3-dihydro-1H-imidazo[4,5-b]pyridin-1-yl]-L-threo-hexitol]",< 3000 nM
< 50 nM,"CN1CCN(CCn2c(=O)[nH]c3ncc(-c4cnc5[nH]ccc5c4)cc32)CC1 [Example 58, 1-[2-(4-Methylpiperazin-1-yl)ethyl]-6-(1H-pyrrolo[2,3-b]pyridin-5-yl)-1,3-dihydro-2H-imidazo[4,5-b]pyridin-2-one]",< 3000 nM
100 to 5000 nM,"CN1CCC(Cn2c(=O)[nH]c3ncc(-c4cnc5[nH]ccc5c4)cc32)CC1 [Example 56, 1-[(1-Methylpiperidin-4-yl)methyl]-6-(1H-pyrrolo[2,3-b]pyridin-5-yl)-1,3-dihydro-2H-imidazo[4,5-b]pyridin-2-one]",3000 to 25000 nM
< 50 nM,"CO[C@@H]1CC[C@H](Cn2c(=O)[nH]c3ncc(-c4cnc5[nH]cc(C)c5c4C)cc32)OC1 [Example 147, 2,6-Anhydro-1,3,4-trideoxy-1-[6-(3,4-dimethyl-1H-pyrrolo[2,3-b]pyridin-5-yl)-2-oxo-2,3-dihydro-1H-imidazo[4,5-b]pyridin-1-yl]-5-O-methyl-L-threo-hexitol]",< 3000 nM
< 50 nM,"O=c1[nH]c2ncc(-c3cnc4[nH]ccc4c3)cc2n1CC1CCC(F)(F)CC1 [Example 103, 1-[(4,4-Difluorocyclohexyl)methyl]-6-(1H-pyrrolo[2,3-b]pyridin-5-yl)-1,3-dihydro-2H-imidazo[4,5-b]pyridin-2-one]",< 3000 nM
< 50 nM,"O=c1[nH]c2ncc(-c3ccc4[nH]ccc4c3)cc2n1CC1CCOCC1 [Example 4, 6-(1H-Indol-5-yl)-1-(tetrahydro-2H-pyran-4-ylmethyl)-1,3-dihydro-2H-imidazo[4,5-b]pyridin-2-one]",< 3000 nM
< 50 nM,"CO[C@H]1CC[C@@H](Cn2c(=O)[nH]c3ncc(-c4cnc5[nH]ccc5c4)cc32)OC1 [Example 135, 2,6-Anhydro-1,3,4-trideoxy-5-O-methyl-1-[2-oxo-6-(1H-pyrrolo[2,3-b]pyridin-5-yl)-2,3-dihydro-1H-imidazo[4,5-b]pyridin-1-yl]-D-threo-hexitol]",< 3000 nM
< 50 nM,"CO[C@@H]1CC[C@H](Cn2c(=O)[nH]c3ncc(-c4cnc5[nH]ccc5c4)cc32)OC1 [Example 136, 2,6-Anhydro-1,3,4-trideoxy-5-O-methyl-1-[2-oxo-6-(1H-pyrrolo[2,3-b]pyridin-5-yl)-2,3-dihydro-1H-imidazo[4,5-b]pyridin-1-yl]-L-threo-hexitol]",< 3000 nM
< 50 nM,"Cc1c(-c2cnc3[nH]c(=O)n(CC4CCOCC4)c3c2)cnc2[nH]ccc12 [Example 36, 6-(4-Methyl-1H-pyrrolo[2,3-b]pyridin-5-yl)-1-(tetrahydro-2H-pyran-4-ylmethyl)-1,3-dihydro-2H-imidazo[4,5-b]pyridin-2-one]",< 3000 nM
< 50 nM,"Cc1nc2[nH]c(=O)n(C[C@H]3COCCO3)c2cc1-c1cnc2[nH]cc(C)c2c1 [Example 47, 1-[(2S)-1,4-Dioxan-2-ylmethyl]-5-methyl-6-(3-methyl-1H-pyrrolo[2,3-b]pyridin-5-yl)-1,3-dihydro-imidazo[4,5-b]pyridin-2-one]",< 3000 nM
< 50 nM,"O=c1[nH]c2ncc(-c3cc4cc[nH]c4nc3F)cc2n1CC1CCOCC1 [Example 79, 6-(6-Fluoro-1H-pyrrolo[2,3-b]pyridin-5-yl)-1-(tetrahydro-2H-pyran-4-ylmethyl)-1,3-dihydro-2H-imidazo[4,5-b]pyridin-2-one]",< 3000 nM
< 50 nM,"CO[C@H]1CCO[C@@H](Cn2c(=O)[nH]c3ncc(-c4cnc5[nH]cc(C)c5c4C)cc32)C1 [Example 151, 2,6-Anhydro-1,3,5-trideoxy-1-[6-(3,4-dimethyl-1H-pyrrolo[2,3-b]pyridin-5-yl)-2-oxo-2,3-dihydro-1H-imidazo[4,5-b]pyridin-1-yl]-4-O-methyl-L-threo-hexitol]",< 3000 nM
